This is an account of results in patent US20070197509A1, “Compositions and methods for modulating gated ion channels” (PainCeptor Pharma Corporation, priority 2005, published 2007).

The target of one experiment is T1, hASIC3 (Homo sapiens, UniProt Q9UHC3).
T1 sequence (Q9UHC3 1-531): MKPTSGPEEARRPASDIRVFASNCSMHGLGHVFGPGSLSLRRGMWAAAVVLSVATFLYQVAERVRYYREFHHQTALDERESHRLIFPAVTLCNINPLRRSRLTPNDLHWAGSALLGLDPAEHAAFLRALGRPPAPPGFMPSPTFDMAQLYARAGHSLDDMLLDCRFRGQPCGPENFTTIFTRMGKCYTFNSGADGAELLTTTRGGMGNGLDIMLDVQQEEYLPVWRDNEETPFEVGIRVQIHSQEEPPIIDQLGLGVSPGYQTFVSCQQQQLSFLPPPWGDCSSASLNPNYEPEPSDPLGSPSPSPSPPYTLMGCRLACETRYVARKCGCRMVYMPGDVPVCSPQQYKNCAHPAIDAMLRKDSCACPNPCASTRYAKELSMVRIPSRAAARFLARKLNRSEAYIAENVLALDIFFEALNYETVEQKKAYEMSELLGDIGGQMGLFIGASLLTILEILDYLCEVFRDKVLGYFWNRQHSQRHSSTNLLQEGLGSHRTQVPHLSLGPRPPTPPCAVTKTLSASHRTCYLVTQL
In words: FlexStation assay on HEK293 cells expressing hASIC3. The following applies: for IC50: FlexStation (Flex), Tables A-F, read-out: Biological Data (IC50 uM) h3 (Flex). Type of experiment: cell-based. Details: expressed in transfected cells; host or cells: HEK293 cells. Here is the method:
A vial of FMP dye (Molecular Devices) is resuspended in 10.5 ml of assay buffer (48.3 mM NaCl, 93 mM NMDG, 5 mM KCl, 5 mM CaCl2, 1 mM MgCl2, 10 mM HEPES, pH 7.4). The culture medium is aspirated from the wells, and 100 μl of the FMP loading solution is added to each well. The cells are incubated at 37° C. for 30 min.
After the loading period, the loading solution is left on the cells and the membrane potential-induced fluorescence is measured in FLIPR™ or FlexStation™ (Molecular Devices, USA), or any other suitable equipment known to the skilled in the art.
For cells co-expressing ASIC1a and ASIC3 channels (e.g. HEK293 cells), membrane potential dye (FMP dye) is used and the FlexStation settings are as above.
(§1) The MES-induced peak calcium response (or change in membrane potential), in the presence of test substance, is expressed relative to the MES response alone. Test substances that block the MES-induced calcium response (or change in membrane potential) are re-tested in triplicates. Confirmed hits are picked for further characterization by performing full dose-response curves to determine potency of each hit compound as represented by the IC50 values (i.e., the concentration of the test substance which inhibits 50% of the MES-induced calcium and/or membrane potentiation response; see, for example, FIG. 1).
(§2) The data shown in Table H was acquired using the FlexStation assay described in Example 1 on HEK293 cells expressing hASIC3 (h3) and/or hASIC1a (h1a).

Experiment [1] addresses T2, hASIC1a (Homo sapiens, UniProt P78348).
T2 sequence (P78348 1-528): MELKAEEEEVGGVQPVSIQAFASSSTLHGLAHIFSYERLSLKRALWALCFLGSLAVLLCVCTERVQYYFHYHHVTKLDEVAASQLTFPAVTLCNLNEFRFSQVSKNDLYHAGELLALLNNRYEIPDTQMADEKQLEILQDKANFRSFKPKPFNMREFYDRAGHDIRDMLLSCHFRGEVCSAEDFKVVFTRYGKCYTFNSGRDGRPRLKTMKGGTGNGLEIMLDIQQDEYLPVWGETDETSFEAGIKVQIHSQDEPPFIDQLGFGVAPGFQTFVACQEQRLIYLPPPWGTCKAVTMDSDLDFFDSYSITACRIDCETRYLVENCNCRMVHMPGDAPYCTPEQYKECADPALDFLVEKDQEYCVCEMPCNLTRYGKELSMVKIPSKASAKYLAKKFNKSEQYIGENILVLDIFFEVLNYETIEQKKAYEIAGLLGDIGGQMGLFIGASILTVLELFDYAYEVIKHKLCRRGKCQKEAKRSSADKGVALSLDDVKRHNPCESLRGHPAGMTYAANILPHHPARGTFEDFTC
Put plainly: FlexStation/FLIPR calcium-imaging assay, acid (MES)-induced response in ASIC1a expressing cells. Particulars: FlexStation (Flex), Tables A-F; read-out: Biological Data (IC50 uM) h1a (Flex). Type of experiment: cell-based. Details: expressed in transfected cells. The protocol: Identification of ASIC Antagonists Using Calcium-Imaging
ASIC1a expressing HEK293 or CHO cells are grown in culture medium (DMEM with 10% FBS), in polystyrene culture flasks ([…]) at 37° C. in a humidified atmosphere of 5% CO2. Confluency of cells should be 80-90% on day of plating. Cells are rinsed with 10 ml of PBS and re-suspended by addition of culture medium and trituration with a 25 ml pipette.
The cells are seeded at a density of approximately 1×10^5 cells/ml for HEK293 and 8×10^4 for CHO cells (100 μl/well) in black-walled, clear bottom, poly-D-lysin pre-treated 96-well plates. Plated cells were allowed to proliferate for 48 h before loading with dye.
Fluo-4/AM (1 mg, Molecular Probes) is dissolved in 912 μl DMSO. The Fluo-4/AM stock solution (1 mM) is diluted with culture medium to a final concentration of 2 μM (loading solution).
The culture medium is aspirated from the wells, and 80 μl of the Fluo-4/AM loading solution is added to each well. The cells are incubated at 37° C. for 30 min. When CHO cells are used, probenicid at 2.5 mM (final concentration) is added in the loading solution.
After the loading period (15-20 min., the loading solution is aspirated and the cells are washed twice with 100 μl modified Assay Buffer (145 mM NaCl, 5 mM KCl, 5 mM CaCl2, 1 mM MgCl2, 10 mM HEPES, pH 7.4) to remove extracellular dye. Following the second wash, 100 μl modified Assay Buffer is added to each well and the fluorescence is measured in FLIPR™ or FlexStation™ (Molecular Devices, USA), or any other suitable equipment known to the skilled in the art. When CHO cells are used, probenicid at 2.5 mM (final concentration) is added in the wash buffer.
First addition: 50 μl test solution at a rate of 26 μl/sec and a starting height of 125 μl
Second addition: 50 μl MES solution (20 mM, 5 mM final concentration) at a rate of 26 μl/sec and a starting height of 115 μl.
Reading intervals: pre-incubation—120 sec. antagonist phase, addition of MES at 145 sec. and reading time with agonist 100 sec (total run time of 240 sec).
Fluorescence obtained after stimulation is corrected for the mean basal fluorescence (in modified Assay Buffer).
as §1

In experiment [2] the test system is hASIC3 (h3) and/or hASIC1a (h1a). In words: FlexStation/FLIPR assay, channel not marked in the cell. Type of experiment: cell-based, human. The following applies: FlexStation, Table C.
Excerpt: as §1, §2

Experiment [3] has as its target T2, hASIC1a. Put plainly: Two-electrode voltage clamp in Xenopus laevis oocytes expressing hASIC1a (OpusExpress). Type of experiment: cell-based. Details: expressed in transfected cells; host or cells: Xenopus laevis oocytes, nuclear microinjection of cDNA (e.g. in pCDNA3). The procedure, abridged: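 Two-electrode voltage clamp on Xenopus oocytes expressing homomeric hASIC1a, recorded on an automated multichannel system. Oocytes superfused with Ringer (HEPES, pH 7.4); currents evoked by MES-buffered acidic Ringer, with compound present in both control and acidic solutions, at room temperature.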
A general note: In two-electrode clamp one electrode senses voltage and the other passes current.

By IC50 is commonly meant the concentration at which inhibition is half-maximal. `O=C(O)c1cccc(Nc2nc(-c3ccc(Cl)cc3Cl)nc3ccccc23)c1` [Compound 101, 3-[2-(2,4-dichloro-phenyl)-quinazolin-4-ylamino]-benzoic acid]: the IC50 at hASIC3 is > 50 µM; at hASIC1a [1] it was 20 to 30 µM.

Regarding `COc1ccc(-c2cc(C(=O)O)c3cc(Cl)ccc3n2)cc1` [Compound 38, 6-chloro-2-(4-methoxy-phenyl)-quinoline-4-carboxylic acid], the “Biological Data (Flex), channel not given” value in experiment [2] was “Not Active (Flex)”.

For the compound `COc1ccc(-c2cc(C(=O)O)c3ccccc3n2)cc1OC` [Compound 39, 2-(3,4-Dimethoxy-phenyl)-quinoline-4-carboxylic acid], the “Biological Data (Flex), channel not given” value in experiment [2] is listed as “Not Active (Flex)”.

A word on the EC50: it is the concentration giving half of the maximal effect. For `Clc1ccc2c(N3CCNCC3)ccnc2c1` [Compound H, 7-chloro-4-piperazin-1-yl-quinoline], the IC50 at hASIC1a [3] (OpusExpress (OX), Tables A-F, h1a printed in some cells only, read-out: Biological Data (IC50 uM) h1a (OX)) is 30 to 50 µM; on hASIC1a [3] (Table H, read-out: IC50 (μM) Opus Express (h1a)), 43.7 µM; at hASIC3, 5 to 15 µM; at hASIC1a [1], 2 to 10 µM. On hASIC3, the EC50 was < 10 µM.
